{"source": "ChEMBL document CHEMBL6115007", "about": "“Synthesis and in vitro and in vivo evaluation of novel bivalent quinolines as antitumor agents via targeting autophagy in cervical cancer” (Eur J Med Chem, 2025)", "key": {"[1]": {"tested_on": "Ca-Ski", "experiment": "Induction of autophagy in ATG7 deficient human Ca Ski cells assessed as increase in LC3-II expression at 0.5 to 1 uM incubated for 24 hrs by Western blot analysis", "type": "functional, cell-based", "conditions": "dose 0.5-1 µM"}, "[2]": {"tested_on": "MCF7", "experiment": "Antiproliferative activity against human MCF7 cells assessed as reduction in cell optical density incubated for 48 hrs by MTT assay", "type": "functional, cell-based", "conditions": "MCF7, 48 h"}, "[3]": {"tested_on": "HeLa", "experiment": "Effect on ferroptosis pathway related gene expression in human HeLa cells at 1.2 uM incubated for 24 hrs by GSVA enrichment analysis", "type": "functional, cell-based"}, "[4]": {"tested_on": "Ca-Ski", "experiment": "Induction of autophagolysosome formation in human Ca Ski cells transfected with mRFP-GFP-LC3 plasmid assessed as increase in ratio of mRFP to GFP puncta at 0.3 to 0.6 uM incubated for 24 hrs", "type": "functional, cell-based", "conditions": "dose 0.3-0.6 µM"}, "[5]": {"tested_on": "Ca-Ski", "experiment": "Induction of autophagy in human Ca Ski cells transfected with mRFP-GFP-LC3 plasmid assessed as appearance of RFP puncta clusters as aggregates in cytoplasm at 0.3 to 0.6 uM incubated for 24 hrs by DAPI staining based fluorescence confocal microscopic analysis", "type": "functional, cell-based", "conditions": "dose 0.3-0.6 µM"}, "[6]": {"tested_on": "HeLa", "experiment": "Antitumor activity against human HeLa cells xenografted in female BALB/c mouse assessed as reduction in tumor weight at 8 mg/kg administered every four days and measured after 26 days relative to control", "type": "functional", "design": "scale not given: the % may be the effect or the level left", "conditions": "time 26 day"}, "[7]": {"experiment": "Toxicity in female BALB/c mouse xenografted with human HeLa cells assessed as effect on kidney at 4 to 8 mg/kg administered every four days and measured after 26 days by H and E staining based analysis", "type": "organism-based", "conditions": "in vivo, 624 h, dose 4-8 mg/kg, time 26 day"}, "[8]": {"tested_on": "HeLa", "experiment": "Induction of apoptosis in human HeLa cells assessed as early apoptotic cells at 0.6 uM incubated for 24 hrs by Annexin V-FITC/PI staining based flow cytometric analysis (reference value: 0.97 %)", "type": "functional"}, "[9]": {"experiment": "Toxicity in female BALB/c mouse xenografted with human HeLa cells assessed as effect on BUN level at 4 to 8 mg/kg administered every four days and measured after 26 days", "type": "organism-based", "conditions": "in vivo, 624 h, dose 4-8 mg/kg, time 26 day"}, "[10]": {"tested_on": "HCT-116", "experiment": "Antiproliferative activity against human HCT-116 cells assessed as reduction in cell optical density incubated for 48 hrs by MTT assay", "type": "functional, cell-based", "conditions": "HCT-116, 48 h"}, "[11]": {"tested_on": "Ca-Ski", "experiment": "Induction of apoptosis in human Ca Ski cells assessed as viable cells at 1 uM incubated for 24 hrs by Annexin V-FITC/PI staining based flow cytometric analysis (reference value: 86.8 %)", "type": "functional", "conditions": "read-out: Activity"}, "[12]": {"tested_on": "Ca-Ski", "experiment": "Induction of apoptosis in human Ca Ski cells assessed as early apoptotic cells at 1 uM incubated for 24 hrs by Annexin V-FITC/PI staining based flow cytometric analysis (reference value: 4.76 %)", "type": "functional"}, "[13]": {"tested_on": "Ca-Ski", "experiment": "Induction of apoptosis in human Ca Ski cells assessed as early apoptotic cells at 1 uM preincubated with Z-VAD-FMK for 1 hrs followed by compound addition and measured after 24 hrs by Annexin V-FITC/PI staining based flow cytometric analysis (reference value: 2.91 %)", "type": "functional"}, "[14]": {"tested_on": "Ca-Ski", "experiment": "Effect on TRFC protein expression level in human Ca Ski cells at 0.5 uM incubated for 24 hrs by Western blot analysis", "type": "functional, cell-based"}, "[15]": {"tested_on": "HeLa", "experiment": "Effect on apoptosis pathway related gene expression in human HeLa cells at 1.2 uM incubated for 24 hrs by GSVA enrichment analysis", "type": "functional, cell-based"}, "[16]": {"tested_on": "Ca-Ski", "experiment": "Induction of autophagy in human Ca Ski cells transfected with mRFP-GFP-LC3 plasmid assessed as decrease in GFP fluorescence at 0.3 to 0.6 uM incubated for 24 hrs by DAPI staining based fluorescence confocal microscopic analysis", "type": "functional, cell-based", "conditions": "dose 0.3-0.6 µM"}, "[17]": {"tested_on": "Ca-Ski", "experiment": "Effect on GPX4 protein expression level in human Ca Ski cells at 0.5 uM incubated for 24 hrs by Western blot analysis", "type": "functional, cell-based"}, "[18]": {"tested_on": "Ca-Ski", "experiment": "Antiproliferative activity against ATG5 deficient human Ca Ski cells assessed as inhibition of cell viability incubated for 24 hrs by CCK8 assay", "type": "functional, cell-based"}, "[19]": {"tested_on": "HeLa", "experiment": "Antiproliferative activity against ATG5 deficient human HeLa cells assessed as inhibition of cell viability incubated for 24 hrs by CCK8 assay", "type": "functional, cell-based"}}, "note": "Calls of active or inactive are those of the source. No cut-off for these calls is given here."}
{"smiles": "COc1cccc(Nc2ccnc3cc(OCCCCCOc4ccc5c(Nc6cccc(OC)c6)ccnc5c4)ccc23)c1", "values": [{"measurement": "Activity", "setting": "[1]", "result": "inactive"}, {"measurement": "IC50", "setting": "[2]", "result": 3080, "unit": "nM"}, {"measurement": "Activity", "setting": "[3]", "result": "Minimal_effect"}, {"measurement": "Activity", "setting": "[4]", "result": "Active"}, {"measurement": "Activity", "setting": "[5]", "result": "Active"}, {"measurement": "Activity", "setting": "[6]", "result": 81.76, "unit": "%"}, {"measurement": "Activity", "setting": "[7]", "result": "Non-toxic"}, {"measurement": "Activity", "setting": "[8]", "result": 0.8, "unit": "%"}, {"measurement": "Activity", "setting": "[9]", "result": "Non-toxic"}, {"measurement": "IC50", "setting": "[10]", "result": 260, "unit": "nM"}, {"measurement": "viability at 1 µM", "setting": "[11]", "result": 82, "unit": "%"}, {"measurement": "Activity", "setting": "[12]", "result": 7.2, "unit": "%"}, {"measurement": "Activity", "setting": "[13]", "result": 5.56, "unit": "%"}, {"measurement": "Activity", "setting": "[14]", "result": "inactive"}, {"measurement": "Activity", "setting": "[15]", "result": "Minimal_effect"}, {"measurement": "Activity", "setting": "[16]", "result": "Active"}, {"measurement": "Activity", "setting": "[17]", "result": "Moderate_effect"}, {"measurement": "IC50", "setting": "[18]", "result": 1580, "unit": "nM"}, {"measurement": "IC50", "setting": "[19]", "result": 1630, "unit": "nM"}]}
